How the values were obtained:
Experiment in all cases: relative viability (nuclei count vs DMSO), 5 days (fraction); higher = more cells survive
RO-3306 + Bortezomib = compound: C1=CC2=C(C=CC(=C2)C=C3C(=O)NC(=NCC4=CC=CS4)S3)N=C1 [RO-3306] + CC(C)C[C@H](NC(=O)[C@H](Cc1ccccc1)NC(=O)c1cnccn1)B(O)O [Bortezomib] (partner 0.002 µM)
Procedure, shortened: (§1)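 After 5 days of treatment, lung cancer cells in 1536-well plates were fixed and stained in a single step (final 0.05% Triton X-100, 1% formaldehyde, 1 ug/ml Hoechst) and their nuclei counted on 4× images. Treatment had been applied by pin tool the day after seeding as one drug alone or as a fixed anchor-drug dose with five library-drug doses (not always all listed) in √10 steps. Relative viability is the nuclei count of treated wells divided by that of vehicle wells, and values are medians of duplicate plates.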

RO-3306 + Navitoclax = compound: C1=CC2=C(C=CC(=C2)C=C3C(=O)NC(=NCC4=CC=CS4)S3)N=C1 [RO-3306] + CC1(C)CCC(c2ccc(Cl)cc2)=C(CN2CCN(c3ccc(C(=O)NS(=O)(=O)c4ccc(N[C@H](CCN5CCOCC5)CSc5ccccc5)c(S(=O)(=O)C(F)(F)F)c4)cc3)CC2)C1 [Navitoclax] (partner 0.5 µM)
Procedure, shortened: as §1

RO-3306 + OSI-027 = compound: C1=CC2=C(C=CC(=C2)C=C3C(=O)NC(=NCC4=CC=CS4)S3)N=C1 [RO-3306] + COc1cccc2cc(-c3nc([C@H]4CC[C@H](C(=O)O)CC4)n4ncnc(N)c34)[nH]c12 [OSI-027] (partner 0.5 µM)
Procedure, shortened: as §1

[1] = compound: O=S(=O)(c1ccccc1)N(CC(F)(F)F)c1ccc(C(O)(C(F)(F)F)C(F)(F)F)cc1 + CS(=O)(=O)N1CCN(Cc2cc3nc(-c4cccc5[nH]ncc45)nc(N4CCOCC4)c3s2)CC1 [Pictilisib] (partner 1 µM)
Procedure, shortened: as §1

Cell Line	relative viability (RO-3306 + Bortezomib; first compound 0.01 µM)	relative viability (RO-3306 + Bortezomib; first compound 0.03162 µM)	relative viability (RO-3306 + Bortezomib; first compound 0.1 µM)	relative viability (RO-3306 + Bortezomib; first compound 0.3162 µM)	relative viability (RO-3306 + Bortezomib; first compound 1 µM)	relative viability (RO-3306 + Navitoclax; first compound 0.01 µM)	relative viability (RO-3306 + Navitoclax; first compound 0.03162 µM)	relative viability (RO-3306 + Navitoclax; first compound 0.1 µM)	relative viability (RO-3306 + Navitoclax; first compound 0.3162 µM)	relative viability (RO-3306 + Navitoclax; first compound 1 µM)	relative viability (RO-3306 + OSI-027; first compound 0.01 µM)	relative viability (RO-3306 + OSI-027; first compound 0.03162 µM)	relative viability (RO-3306 + OSI-027; first compound 0.1 µM)	relative viability (RO-3306 + OSI-027; first compound 0.3162 µM)	relative viability (RO-3306 + OSI-027; first compound 1 µM)	relative viability ([1]; first compound 0.8 µM)	relative viability ([1]; first compound 2.53 µM)	relative viability ([1]; first compound 8 µM)
H3255	0.747	0.707	0.738	0.792	0.677	0.458	0.484	0.558	0.47	0.428	0.671	0.476	0.604	0.594	0.504	0.492	0.51	0.396
ABC-1	0.262	0.396	0.28	0.287	0.274	–	–	–	–	–	0.411	0.375	0.402	0.483	0.403	0.7	0.602	0.755
LXF-289	0.992	0.928	1.05	0.95	0.929	0.992	0.961	0.972	0.976	0.993	0.801	0.778	0.681	0.739	0.63	0.624	0.637	0.588
NCI-H1975	0.468	0.358	0.343	0.417	0.243	1.49	0.986	1.22	1.12	1.01	0.959	0.614	0.655	0.788	0.613	0.28	0.264	0.249
LCLC-97TM1	1.06	–	0.689	0.455	0.531	–	0.292	0.354	0.399	0.317	0.53	0.391	0.476	0.549	0.454	0.174	0.218	0.187
IA-LM	0.86	0.8	0.745	0.6	0.969	0.838	0.591	0.717	0.903	1.04	–	–	–	–	–	0.355	0.305	0.524
HCC-15	1.04	0.804	1.01	1.06	0.727	0.727	0.656	0.716	0.808	0.654	0.664	0.562	0.649	0.808	0.608	0.785	0.684	0.654
NCI-H647	1.13	0.889	1.04	0.931	0.751	1.45	1.24	1.07	1.24	0.966	0.644	0.608	0.636	0.84	0.673	0.323	0.345	0.372
NCI-H1993	–	1.11	1.02	0.887	0.777	–	0.926	0.892	0.864	0.83	0.6	0.581	0.507	0.614	0.543	0.772	0.782	1.07
COR-L23	1.03	–	1.1	1.02	0.772	0.734	–	0.974	1.01	0.937	0.741	0.688	0.783	0.632	0.514	1.23	0.796	0.901
NCI-H1915	1.07	0.895	1.09	1.01	0.488	0.808	0.797	0.792	0.781	0.718	0.698	0.594	0.613	0.637	0.396	0.965	1.1	1.13
NCI-H1703	0.646	0.261	0.349	0.203	0.289	1.23	0.913	1.08	0.887	1.13	–	–	–	–	–	0.253	0.211	0.218
NCI-H727	0.878	0.733	0.84	0.817	0.948	0.45	0.395	0.433	0.471	0.455	0.567	0.548	0.557	0.608	0.674	0.758	0.261	0.353
LC-2-ad	1.1	0.976	0.965	1.09	0.712	0.451	0.465	0.437	0.408	0.378	0.863	0.735	0.781	0.932	0.849	0.469	0.377	0.437
NCI-H2009	0.994	0.82	1	1.06	1	1.2	1.14	1.17	1.09	1.13	0.656	0.56	0.624	0.622	0.615	0.814	0.751	0.783
A-427	0.935	1.04	0.942	0.906	0.478	1.05	0.978	0.959	0.936	0.993	0.459	0.457	0.423	0.451	0.497	0.708	0.677	0.822
SK-MES-1	–	–	–	–	–	1.36	1.25	1.22	1.36	1.2	0.657	0.558	0.693	0.794	0.612	0.25	0.235	0.271
NCI-H1734	0.956	0.763	0.866	0.885	0.597	1	0.564	0.922	0.797	0.873	0.653	0.582	0.529	0.615	0.514	0.549	0.48	0.429
LOU-NH91	0.557	0.491	0.441	0.483	0.442	0.666	0.612	0.702	0.685	0.645	0.686	0.712	0.711	0.719	0.686	0.539	0.564	0.515
LCLC-103H	1.06	1.03	1.01	0.927	0.815	–	–	–	–	–	0.479	0.392	0.45	0.418	0.508	0.536	0.592	0.651
NCI-H522	–	–	–	–	–	–	–	–	–	–	0.68	0.695	0.622	0.711	0.715	–	–	–
NCI-H1651	0.887	0.877	0.923	0.853	0.858	0.982	0.854	1.04	1.14	0.882	0.796	0.564	0.633	0.794	0.609	0.681	0.598	0.598

Cell Line	relative viability (RO-3306 + Bortezomib; first compound 0.01 µM)	relative viability (RO-3306 + Bortezomib; first compound 0.03162 µM)	relative viability (RO-3306 + Bortezomib; first compound 0.1 µM)	relative viability (RO-3306 + Bortezomib; first compound 0.3162 µM)	relative viability (RO-3306 + Bortezomib; first compound 1 µM)	relative viability (RO-3306 + Navitoclax; first compound 0.01 µM)	relative viability (RO-3306 + Navitoclax; first compound 0.03162 µM)	relative viability (RO-3306 + Navitoclax; first compound 0.1 µM)	relative viability (RO-3306 + Navitoclax; first compound 0.3162 µM)	relative viability (RO-3306 + Navitoclax; first compound 1 µM)	relative viability (RO-3306 + OSI-027; first compound 0.01 µM)	relative viability (RO-3306 + OSI-027; first compound 0.03162 µM)	relative viability (RO-3306 + OSI-027; first compound 0.1 µM)	relative viability (RO-3306 + OSI-027; first compound 0.3162 µM)	relative viability (RO-3306 + OSI-027; first compound 1 µM)	relative viability ([1]; first compound 0.8 µM)	relative viability ([1]; first compound 2.53 µM)	relative viability ([1]; first compound 8 µM)
NCI-H23	1.04	0.755	1.1	0.944	0.773	0.965	0.842	0.87	0.881	0.613	0.531	0.462	0.575	0.519	0.403	0.641	0.521	0.538
NCI-H322M	1.17	1.12	1.19	1.32	1.22	1.24	1.14	1.25	1.22	1.19	0.535	0.527	0.532	0.571	0.503	0.551	0.529	0.541
HCC-44	0.879	0.914	0.926	0.882	0.711	1.09	1.01	0.932	1.08	1.03	0.371	0.441	0.434	0.402	0.387	0.657	0.52	0.688
NCI-H1648	–	–	–	–	–	–	–	–	–	–	0.247	–	0.289	0.249	0.241	–	–	–
UMC-11	1.22	0.407	0.64	0.689	0.538	0.325	0.312	0.305	0.321	0.319	0.496	0.384	0.456	0.552	0.453	0.908	0.867	1.14
NCI-H596	0.939	0.917	1.18	0.812	0.962	0.894	0.967	0.962	0.994	0.72	0.788	0.72	0.7	0.729	0.579	0.353	0.342	0.335
NCI-H650	0.662	0.635	0.703	0.764	0.694	–	–	–	–	–	0.473	0.471	0.492	0.483	0.501	0.913	0.842	0.885
NCI-H661	0.817	0.738	0.84	0.829	0.935	–	–	–	–	–	0.853	0.597	0.695	0.72	0.701	0.389	0.398	0.427
A549	–	–	–	–	–	1.36	–	1.2	1.18	1.21	–	–	–	–	–	0.609	0.473	0.567
NCI-H1944	–	–	–	–	–	1.11	1.03	0.963	1.09	0.993	0.399	0.366	0.361	0.394	0.335	0.3	0.341	0.357
NCI-H1299	1.07	1.07	1.04	1.07	1.05	1.08	1.11	1.04	1	1.03	–	–	–	–	–	0.875	0.78	0.663
LK-2	–	–	–	–	–	0.892	0.751	0.828	0.913	0.792	0.209	–	0.157	0.17	0.202	0.628	0.752	0.493
Calu-6	1.07	1.06	1.05	0.995	1.01	1.06	0.776	0.934	0.908	0.826	–	–	–	–	–	0.839	0.851	0.691
NCI-H1395	–	–	–	–	–	1.13	1.38	1.11	1.04	0.978	0.598	0.674	0.502	0.618	0.612	0.569	0.562	0.635
NCI-H1563	0.921	0.75	0.787	0.939	0.753	–	–	–	–	–	0.671	0.733	0.736	0.735	0.725	0.734	0.655	0.581
NCI-H358	–	–	–	–	–	–	–	–	–	–	0.587	0.658	0.79	0.741	0.59	0.274	0.28	0.286
NCI-H2170	–	–	–	–	–	0.571	0.447	0.593	0.62	0.595	0.819	0.702	0.726	0.655	0.697	0.305	0.291	0.307
NCI-H2342	–	–	–	–	–	–	–	–	–	–	0.664	0.559	0.616	0.575	0.596	–	–	–
NCI-H1793	–	–	–	–	–	0.432	0.391	0.46	0.46	0.358	0.266	0.277	0.291	0.251	0.262	0.366	0.344	0.277
SW 900	–	–	–	–	–	–	–	–	–	–	0.486	0.427	0.467	0.551	0.266	–	–	–
EBC-1	0.616	0.5	0.501	0.529	0.572	0.412	0.357	0.315	0.474	0.29	–	–	–	–	–	0.286	0.266	0.284
